Experimental data taken from US20230416202A1, “Small Molecule Compounds and Compositions” (Telo Therapeutics, Inc., priority 2020, published 2023).
pIC50: −log10 of the molar value. Like-named read-outs stand apart in the source and are kept apart here.

Columns and labels:
Assay type in all cases: cell-based, human
HEK293 cells = assay: HEK293 cytostatic; settings: read-out: wt Tert IC50 uM HEK293 cytostatic
HepG2 cells = assay: HepG2 cytostatic
Mutant TERT = assay: HepG2 hTERT mRNA assay (qPCR); settings: Homo sapiens; HepG2 cells (mutated TERT), 48 hours, TERT mRNA via qPCR
Experimental: (§1) HepG2 cells (hepatocyte carcinoma (HCC) cells; with mutated TERT) or HEK293T cells (with wild type (wt) TERT) were seeded at 4,000 cells/well in 96-well plates. The following day, test compounds were added to cells for at concentrations of 25 uM, 12.5 uM, 6.25 uM, 3.125 uM, 1.563 uM, 0.781 uM, 0.391 uM, 0.195 uM, 0.098 uM or vehicle control (0.1% DMSO). Each condition was tested in three replicate wells. 48 hours post drug addition, the cells were harvested for RNA using the 96-Magmax RNA Isolation kit (Cat. No. AM1830). RNA was converted to cDNA using the Superscript III First strand cDNA synthesis kit (Cat. No. 18080051). RNA and cDNA concentration and quality were determined using the NanoQuant nucleic acid quantification method. 500 ng cDNA from each sample was used to detect TERT mRNA via qPCR. GUSB was also measured as an internal control and fold change to vehicle control was determined using the delta CT method.

wt TERT = assay: HEK293T hTERT mRNA assay (qPCR); settings: for pIC50: wild type TERT, read-out: wt TERT IC50; for IC50: HEK293 cells (wt TERT), 48 hours, class symbols, read-out: wt TERT IC50 uM HEK293
Experimental: as §1

[1] = Homo sapiens, HEK293, HEK293 cells

Compound	IC50 (HEK293 cells; [1])	IC50 (HepG2 cells; Homo sapiens)	pIC50 (Mutant TERT)	pIC50 (wt TERT; Homo sapiens, HEK-293T)	IC50 (wt TERT; Homo sapiens)	IC50 (HEK293 cells; HEK293 cells)	IC50 (HepG2 cells)	IC50 (wt TERT)	pIC50 (wt TERT)
COc1cccc([C@H]2C[C@H](CC(=O)O)CN(Cc3ccc(C(F)(F)F)cc3)C2)c1 (racemic) [Compound 103, 2-((anti)-5-(3-methoxyphenyl)-1-(4-(trifluoromethyl)benzyl)piperidin-3-yl)acetic acid]	5 to 25 µM	5 to 25 µM	< 4.60	< 4.60	> 25 µM	–	–	–	–
COc1cccc(CN2C[C@H](CC(=O)O)C[C@@H](c3ccc(C(F)(F)F)cc3)C2)c1 [Compound 110, 2-((3S,5S)-1-(3-methoxybenzyl)-5-(4-(trifluoromethyl)phenyl)piperidin-3-yl)acetic acid]	–	–	< 4.60	< 4.60	> 25 µM	–	–	–	–
COc1cc([C@H]2C[C@H](CC(=O)O)CN(Cc3ccc(C(F)(F)F)cc3)C2)cc(C(F)(F)F)c1 (racemic) [Compound 106, rac-2-((anti)-5-(3-methoxy-5-(trifluoromethyl)phenyl)-1-(4-(trifluoromethyl)benzyl)piperidin-3-yl)acetic acid]	5 to 25 µM	0.5 to 5 µM	5.30 to 6.30	< 4.60	> 25 µM	–	–	–	–
CC(C(=O)O)[C@@H]1C[C@@H](c2ccc(C(F)(F)F)cc2)CN(Cc2ccc(C(F)(F)F)cc2)C1 (single isomer, unassigned) [Compound 113]	–	0.5 to 5 µM	5.30 to 6.30	< 4.60	> 25 µM	5 to 25 µM	–	–	–
COc1ccc(CN2C[C@H](CC(=O)O)C[C@@H](c3ccc(C(F)(F)F)cc3)C2)cc1 [Compound 109]	5 to 25 µM	0.5 to 5 µM	< 4.60	< 4.60	> 25 µM	–	–	–	–
O=C(O)C[C@@H]1C[C@@H](c2ccc(C(F)(F)F)cc2)CN(Cc2cccc(C(F)(F)F)c2)C1 [Compound 111, 2-((3S,5S)-1-(3-(trifluoromethyl)benzyl)-5-(4-(trifluoromethyl)phenyl)piperidin-3-yl)acetic acid]	–	–	> 6.30	< 4.60	> 25 µM	–	–	–	–
COc1cc(CN2C[C@H](CC(=O)O)C[C@@H](c3ccc(C(F)(F)F)cc3)C2)cc(C(F)(F)F)c1 [Compound 108, 2-((3S,5S)-1-(3-methoxy-5-(trifluoromethyl)benzyl)-5-(4-(trifluoromethyl)phenyl)piperidin-3-yl)acetic acid]	–	> 25 µM	< 4.60	< 4.60	> 25 µM	–	–	–	–
CS(=O)(=O)c1ccc(CN2C[C@H](CC(=O)O)C[C@@H](c3ccc(C(F)(F)F)cc3)C2)cc1 [Compound 120, 2-((3S,5S)-1-(4-(methylsulfonyl)benzyl)-5-(4-(trifluoromethyl)phenyl)piperidin-3-yl)acetic acid]	–	–	5.30 to 6.30	–	–	–	–	–	–
[N-]=[N+]=NCc1ccc(CN2C[C@H](CC(=O)O)C[C@@H](c3ccc(N=[N+]=[N-])cc3)C2)cc1 (single isomer, unassigned) [Compound 145]	–	–	5.30 to 6.30	–	–	–	–	–	–
O=C(O)C[C@H]1C[C@H](c2ccc(C(F)(F)F)cc2)CN(Cc2ccc(C(F)(F)F)cc2Cl)C1 (racemic) [Compound 131, Anti-2-(-1-(2-chloro-4-(trifluoromethyl)benzyl)-5-(4-(trifluoromethyl)phenyl)piperidin-3-yl)acetic acid]	–	–	5.30 to 6.30	–	–	–	–	–	–
CC(C(=O)O)[C@@H]1C[C@@H](c2ccc(C(F)(F)F)cc2)CN(Cc2ccc(C(F)(F)F)cc2)C1 (single isomer, unassigned) [Compound 114]	–	–	–	–	–	0.5 to 5 µM	0.5 to 5 µM	> 25 µM	< 4.60
O=C(O)C[C@H]1C[C@H](c2cccc(C(F)(F)F)c2)CN(Cc2ccc(C(F)(F)F)cc2)C1 (racemic) [Compound 104, rac-2-((anti)-1-(4-(trifluoromethyl)benzyl)-5-(3-(trifluoromethyl)phenyl)piperidin-3-yl)acetic acid]	5 to 25 µM	5 to 25 µM	–	< 4.60	> 25 µM	–	–	–	–
O=C(O)C[C@@H]1C[C@@H](c2ccc(C(F)(F)F)cc2)CN(Cc2ccc(F)c(F)c2)C1 [Compound 118, 2-((3S,5S)-1-(3,4-difluorobenzyl)-5-(4-(trifluoromethyl)phenyl)piperidin-3-yl)acetic acid]	–	–	> 6.30	–	–	–	–	–	–
